Measured values: patent publication US20070149508A1, “Six membered heteroaromatic inhibitors targeting resistant kinase mutations” (TargeGen, Inc., priority 2005, published 2007)
Counter-ions that a name gives are not always drawn.

Key:
[1] = target: T1, Abl (T315I) (Homo sapiens, UniProt P00519, T315I); assay: Abl (T315I) Kinase Assay (KinaseGlo luminescent detection of residual ATP); assay type: biochemical; details: Abl (T315I) IC50 (nM), Abl (T315I) (Upstate, 17 ng/well), Abltide 100 uM, ATP 500 nM, 60 minutes at 37° C.
T1 construct: purchased Upstate
Protocol: The assay was performed similarly to the Abl kinase assay. Abl (T315I) (Upstate, 17 ng/well); Abltide substrate (100 uM) and ATP (500 nM) comprised the reaction mixture. Compound was similarly diluted, and the reaction plate was incubated for 60 minutes at 37° C.

[2] = target: Abl kinase (Homo sapiens, UniProt P00519); assay: biochemical; details: Abl IC50 (nM), Abl kinase (Invitrogen, 20 ng/well), Abltide 100 μM, ATP 500 nM, 37° C. for 60 minutes, top concentration 10 uM
Protocol: Kinase activity was assessed using luminescent detection (KinaseGlo, Promega) of residual ATP concentration in reaction mixtures containing optimized levels of kinase, substrate, ATP, compound and appropriate buffers. Kinase, substrate and ATP concentrations were determined per the supplier's recommendations. Briefly, this involved running concentration curves to select for optimal signal.
The reaction mixture (50 ul/well) consisted of Abl kinase (Invitrogen, 20 ng/well); Abltide peptide substrate (Upstate, 100 μM) and ATP (500 nM). Each compound was evaluated at a top concentration of 10 uM with 1:3 dilution steps, 10 dilution steps total. Compound was diluted into DMSO and transferred to the reaction plate, resulting in a final DMSO concentration of 2%. This amount of DMSO was determined not to interfere with the enzyme. The reaction was conducted at 37° C. for 60 minutes. The degree of inhibition was assessed using IC50 determinations, which were obtained using GraphPad Prism4.

| Compound | IC50 [1] [nM] | IC50 [2] [nM] |
| --- | --- | --- |
| O=C(Nc1nc2ccc(/C=C/c3cnc(Nc4ccc(S(=O)(=O)C5CCNCC5)cc4)nc3)cc2s1)c1cccc(C(F)(F)F)c1 [N-(6-((E)-2-(2-(4-(piperidin-4-ylsulfonyl)phenylamino)pyrimidin-5-(trifluoromethyl)benzamide Hydrochloride] | 332 | 967 |
| O=C(Nc1nc2ccc(/C=C/c3cnc(Nc4ccc(S(=O)(=O)C5CCNCC5)cc4)nc3)cc2s1)c1cccc(F)c1 [N-(6-((E)-2-(2-(4-(piperidin-4-ylsulfonyl)phenylamino)pyrimidin-5-yl)vinyl)benzo[d]thiazol-2-yl)-3-fluorobenzamide Hydrochloride] | 2740 | 629 |
| CN(C)CCN(C1CCNCC1)S(=O)(=O)c1ccc(Nc2ncc(/C=C/c3cccc4[nH]ncc34)cn2)cc1 [N-[2-(dimethylamino)ethyl]-4-({5-[(E)-2-(1H-indazol-4-yl)vinyl]pyrimidin-2-yl}amino)-N-piperidin-4-ylbenzenesulfonamide] | 113 | 10 |
| CN(C)CCN(C1CCNCC1)S(=O)(=O)c1ccc(Nc2ncc(/C=C/c3cccc4[nH]ccc34)cn2)cc1 [N-[2-(dimethylamino)ethyl]-4-({5-[(E)-2-(1H-indol-4-yl)vinyl]pyrimidin-2-yl}amino)-N-piperidin-4-ylbenzenesulfonamide] | 182 | 25 |
| C=Cc1cnc(Nc2ccc(S(=O)(=O)N3CCNCC3)c(N3CCNCC3)c2)nc1 [N-[3-piperazin-1-yl-4-(piperazin-1-ylsulfonyl)phenyl]-5-vinylpyrimidin-2-amine trifluoroacetic acid salt] | 4640 | 22200 |
| O=S(=O)(c1ccc(Nc2ncc(/C=C/c3ccc(-c4cn[nH]c4)cc3)cn2)cc1)N1CCNCC1 [N-[4-(piperazin-1-ylsulfonyl)phenyl]-5-{(E)-2-[4-(1H-pyrazol-4-yl)phenyl]vinyl}pyrimidin-2-amine] | 1230 | 3800 |
| O=S(=O)(c1ccc(Nc2ncc(/C=C/c3ccnc4[nH]ccc34)cn2)cc1)C1CCNCC1 [N-[4-(piperidin-4-ylsulfonyl)phenyl]-5-[(E)-2-(1H-pyrrolo[2,3-b]pyridin-4-yl)vinyl]pyrimidin-2-amine] | 163 | 38 |
| O=C(Nc1ccc(Cl)c(/C=C/c2cnc(Nc3ccc(S(=O)(=O)C4CCNCC4)cc3)nc2)c1)c1cccc(C(F)(F)F)c1 [N-[4-Chloro-3-(2-{2-[4-(piperidine-4-sulfonyl)-phenylamino]-pyrimidin-5-yl}-vinyl)-phenyl]-3-trifluoromethyl-benzamide] | 2000 | 12 |
| O=C(Nc1nc2ccc(/C=C/c3cnc(Nc4ccc(S(=O)(=O)N5CCNCC5)cc4)nc3)cc2s1)c1cccc(C(F)(F)F)c1 [N-[6-(2-{2-[4-(Piperazine-1-sulfonyl)-phenylamino]-pyrimidin-5-yl]-vinyl)-benzothiazol-2-yI]-3-trifluoromethyl-benzamide] | 5600 | 5110 |
| NC1CCN(S(=O)(=O)c2ccc(Nc3ncc(/C=C/c4cccc5[nH]ncc45)cn3)cc2)CC1 [N-{4-[(4-aminopiperidin-1-yl)sulfonyl]phenyl}-5-[(E)-2-(1H-indazol-4-yl)vinyl]pyrimidin-2-amine] | 173 | 5.1 |
| NC1CCN(S(=O)(=O)c2ccc(Nc3ncc(/C=C/c4cccc5[nH]ccc45)cn3)cc2)CC1 [N-{4-[(4-aminopiperidin-1-yl)sulfonyl]phenyl}-5-[(E)-2-(1H-indol-4-yl)vinyl]pyrimidin-2-amine] | 347 | 13 |
| NC1Cc2ccc(/C=C/c3cnc(Nc4ccc(S(=O)(=O)N5CCC(CO)CC5)cc4)nc3)cc2C1 (stereo not shown) [[1-(4-{5-[2-(2-Amino-indan-5-yl)-vinyl]-pyrimidin-2-ylamino}-benzenesulfonyl)-piperidin-4-yl]-methanol] | 2790 | 13700 |
| O=S(=O)(c1ccc(Nc2ncc(/C=C/c3cc(Cl)cc4[nH]nnc34)cn2)cc1)N1CCNCC1 [[4-(Piperazine-1-sulfonyl)-phenyl]-{5-[2-(6-chloro-1H-benzotriazol-4-yl)-vinyl]-pyrimidin-2-yl}-amine] | 21 | 61 |
| O=S(=O)(c1ccc(Nc2ncc(/C=C/c3cc(C(F)(F)F)cc4[nH]nnc34)cn2)cc1)N1CCNCC1 [[4-(Piperazine-1-sulfonyl)-phenyl]-{5-[2-(6-trifluoromethyl-1H-benzotriazol-4-yl)-vinyl]-pyrimidin-2-yl}-amine] | 89 | 269 |
| O=S(=O)(c1ccc(Nc2ncc(/C=C/c3cccc4[nH]ncc34)cn2)cc1)N1CCCNCC1 [[4-([1,4]Diazepane-1-sulfonyl)-phenyl]-{5-[2-(1H-indazol-4-yl)-vinyl]-pyrimidin-2-yl}-amine] | 184 | 12 |
| O=S(=O)(c1ccc(Nc2ncc(/C=C/c3cccc4[nH]ccc34)cn2)cc1)N1CCCNCC1 [[4-([1,4]Diazepane-1-sulfonyl)-phenyl]-{5-[2-(1H-indol-4-yl)-vinyl]-pyrimidin-2-yl}-amine] | 195 | 13 |
| O=S(=O)(c1ccc(Nc2ncc(/C=C/c3cc(Cl)cc4[nH]nnc34)cn2)cc1)N1CCCNCC1 [[4-([1,4]Diazepane-1-sulfonyl)-phenyl]-{5-[2-(6-chloro-1H-benzotriazol-4-yl)-vinyl]-pyrimidin-2-yl}-amine] | 16 | 41 |
| O=S(=O)(c1ccc(Nc2ncc(/C=C/c3cc(C(F)(F)F)cc4[nH]nnc34)cn2)cc1)N1CCCNCC1 [[4-([1,4]Diazepane-1-sulfonyl)-phenyl]-{5-[2-(6-trifluoromethyl-1H-benzotriazol-4-yl)-vinyl]-pyrimidin-2-yl}-amine] | 67 | 59 |
| NC(=O)CN(C1CCNCC1)S(=O)(=O)c1ccc(Nc2ncc(/C=C/c3ccc4nc(N)sc4c3)cn2)cc1 [[4-({5-[(E)-2-(2-amino-1,3-benzothiazol-6-yl)vinyl]pyrimidin-yl}amino)phenyl]sulfonyl}-N2-piperidin-4-ylglycinamide] | 96 | 113 |
| O=S(=O)(c1ccc(Nc2ncc(/C=C/c3cccc4[nH]ncc34)cn2)cc1)N1CCNCC1 [{5-[2-(1H-Indazol-4-yl)-vinyl]-pyrimidin-2-yl}-[4-(piperazine-1-sulfonyl)-phenyl]-amine] | 289 | 44 |
| O=S(=O)(c1ccc(Nc2ncc(/C=C/c3ccc4[nH]ncc4c3)cn2)cc1)C1CCNCC1 [{5-[2-(1H-Indazol-5-yl)-vinyl]-pyrimidin-2-yl}-[4-(piperidine-4-sulfonyl)-phenyl]-amine] | 262 | 163 |
| C(=C\c1cccc2[nH]ccc12)/c1cnc(Nc2cccc(N3CCNCC3)c2)nc1 [{5-[2-(1H-Indol-4-yl)-vinyl]-pyrimidin-2-yl}-(3-piperazin-1-yl-phenyl)-amine] | 2600 | 86 |
| C(=C\c1cccc2[nH]ccc12)/c1cnc(Nc2ccc(C3CCNCC3)cc2)nc1 [{5-[2-(1H-Indol-4-yl)-vinyl]-pyrimidin-2-yl}-(4-piperidin-4-yl-phenyl)-amine] | 1320 | 42 |
| O=S(=O)(CCCN1CCNCC1)c1ccc(Nc2ncc(/C=C/c3cccc4[nH]ccc34)cn2)cc1 [{5-[2-(1H-Indol-4-yl)-vinyl]-pyrimidin-2-yl}-[4-(3-piperazin-1-yl-propane-1-sulfonyl)-phenyl]-amine] | 488 | 54 |
| O=S(=O)(c1ccc(Nc2ncc(/C=C/c3ccc4[nH]ccc4c3)cn2)cc1)C1CCNCC1 [{5-[2-(1H-Indol-5-yl)-vinyl]-pyrimidin-2-yl}-[4-(piperidine-4-sulfonyl)-phenyl]-amine] | 138 | 37 |
| COc1cccc(/C=C/c2cnc(Nc3ccc(S(=O)(=O)C4CCNCC4)cc3)nc2)c1 [{5-[2-(3-Methoxy-phenyl)-vinyl]-pyrimidin-2-yl}-[4-piperidine-4-sulfonyl)-phenyl]-amine] | 664 | 172 |
